Measured values: patent publication US20070142392A1, “Uses of rifamycins” (ActivBiotics, Inc., priority 2005, published 2007)
≈ marks a conversion by molar mass, not a printed value.

How the values were obtained:
Format in all cases: cell-based
[1] = system: S. aureus; assay: MIC values, S. aureus (Tables 1-4)
[2] = system: S. pneumo.; assay: MIC values, S. pneumo. (Tables 1-4)
[3] = system: E. faecalis; assay: MIC values, E. faecalis (Tables 1-4)
[4] = system: H. flu
[5] = system: E. coli; assay: MIC values, E. coli (Tables 1-4)

| SMILES | MIC S. aureus [1] [µg/mL] | MIC S. pneumo. [2] [µg/mL] | MIC E. faecalis [3] [µg/mL] | MIC H. flu [4] [µg/mL] | MIC E. coli [5] [µg/mL] | MIC F. faecalis ([3]; Table 2) [µg/mL] |
| --- | --- | --- | --- | --- | --- | --- |
| COC1C=COC2(C)Oc3c(C)c(O)c4c(=O)c(c5n(C)c6cc(N7CC(C)NC(C)C7)ccc6nc-5c4c3C2=O)NC(=O)C(C)=CC=CC(C)C(O)C(C)C(O)C(C)C(O)C1C (mixture of isomers) [Compound 97] | 1 | 2 | >8 | 4 | >8 |  |
| COC1C=COC2(C)Oc3c(C)c(O)c4c(=O)c(c5oc6cc(N7CC(C)CC(C)C7)cc(O)c6nc-5c4c3C2=O)NC(=O)C(C)=CC=CC(C)C(O)C(C)C(O)C(C)C(O)C1C (mixture of isomers) [Compound 116] | 0.008 | 0.002 | 1 | 0.12 |  |  |
| COC1C=COC2(C)Oc3c(C)c(O)c4c(=O)c(c5oc6cc(N7CC(C)OC(C)C7)cc(O)c6nc-5c4c3C2=O)NC(=O)C(C)=CC=CC(C)C(O)C(C)C(O)C(C)C(O)C1C (mixture of isomers) [Compound 117] | 0.015 | 0.002 | 0.25 | 0.25 | 8 |  |
| COC1C=COC2(C)Oc3c(C)c(O)c4c(=O)c(c5oc6cc(N7CCC(F)C7)ccc6nc-5c4c3C2=O)NC(=O)C(C)=CC=CC(C)C(O)C(C)C(O)C(C)C(O)C1C (mixture of isomers) [Compound 122] | 0.03 | 0.015 | 0.5 | 0.06 | 4 |  |
| CCOC(=O)NC1CCN(c2cc(O)c3nc4c5c6c7c(C)c(O)c5c(=O)c(c-4oc3c2)NC(=O)/C(C)=C\C=C\[C@H](C)[C@H](O)[C@@H](C)[C@@H](O)[C@@H](C)[C@H](OC(C)=O)[C@H](C)[C@@H](OC)/C=C/O[C@@](C)(O7)C6=O)CC1 [Compound 1] | 0.008 (≈ 0.00824 µM) | 0.00025 (≈ 0.000257 µM) | 2 (≈ 2.06 µM) | 2 (≈ 2.06 µM) | >8 |  |
| COC1C=COC2(C)Oc3c(C)c(O)c4c(=O)c(c5oc6cc(N7CC8C(C7)C8NC(=O)OCC[Si](C)(C)C)cc(O)c6nc-5c4c3C2=O)NC(=O)C(C)=CC=CC(C)C(O)C(C)C(O)C(C)C(OC(C)=O)C1C (stereo not drawn) [Compound 2] | 1 (≈ 0.96 µM) | 0.03 (≈ 0.0288 µM) | >8 | >8 | >8 |  |
| CCOC(=O)NC1CCN(c2cc(O)c3nc4c5c6c7c(C)c(O)c5c(=O)c(c-4oc3c2)NC(=O)/C(C)=C\C=C\[C@H](C)[C@H](O)[C@@H](C)[C@@H](O)[C@@H](C)[C@H](O)[C@H](C)[C@@H](OC)/C=C/O[C@@](C)(O7)C6=O)CC1 [Compound 3] | 0.03 (≈ 0.0323 µM) | 0.0005 (≈ 0.000538 µM) | 0.12 (≈ 0.129 µM) | 0.25 (≈ 0.269 µM) | 4 (≈ 4.31 µM) |  |
| COC1C=COC2(C)Oc3c(C)c(O)c4c(=O)c(c5oc6cc(N7CC8C(N)C8C7)cc(O)c6nc-5c4c3C2=O)NC(=O)C(C)=CC=CC(C)C(O)C(C)C(O)C(C)C(OC(C)=O)C1C (stereo not drawn) [Compound 4] | 0.03 (≈ 0.0334 µM) | 0.00025 (≈ 0.000279 µM) | 0.5 (≈ 0.557 µM) | 0.25 (≈ 0.279 µM) | >8 |  |
| COC1C=COC2(C)Oc3c(C)c(O)c4c(=O)c(c5oc6cc(N7CC8CCCNC8C7)cc(O)c6nc-5c4c3C2=O)NC(=O)C(C)=CC=CC(C)C(O)C(C)C(O)C(C)C(OC(C)=O)C1C (stereo not drawn) [Compound 5] | 0.015 (≈ 0.0162 µM) | 0.00025 (≈ 0.00027 µM) | 0.5 (≈ 0.541 µM) | 2 (≈ 2.16 µM) | 8 (≈ 8.65 µM) |  |
| COC1C=COC2(C)Oc3c(C)c(O)c4c(=O)c(c5oc6cc(N7CC8CCCNC8C7)cc(O)c6nc-5c4c3C2=O)NC(=O)C(C)=CC=CC(C)C(O)C(C)C(O)C(C)C(O)C1C (stereo not drawn) [Compound 7] | 0.12 (≈ 0.136 µM) | 0.004 (≈ 0.00453 µM) | 4 (≈ 4.53 µM) | 4 (≈ 4.53 µM) | >8 |  |
| CO[C@H]1/C=C/O[C@@]2(C)Oc3c(C)c(O)c4c(=O)c(c5oc6cc(N7CCC(N8CCOCC8)CC7)cc(O)c6nc-5c4c3C2=O)NC(=O)/C(C)=C\C=C\[C@H](C)[C@H](O)[C@@H](C)[C@@H](O)[C@@H](C)[C@H](OC(C)=O)[C@@H]1C [Compound 9] | 0.015 (≈ 0.0155 µM) | 0.001 (≈ 0.00103 µM) | 2 (≈ 2.06 µM) | 2 (≈ 2.06 µM) | 8 (≈ 8.26 µM) |  |
| CO[C@H]1/C=C/O[C@@]2(C)Oc3c(C)c(O)c4c(=O)c(c5oc6cc(N7CC8CCC(C7)N8)cc(O)c6nc-5c4c3C2=O)NC(=O)/C(C)=C\C=C\[C@H](C)[C@H](O)[C@@H](C)[C@@H](O)[C@@H](C)[C@H](OC(C)=O)[C@@H]1C [Compound 10] | 0.008 (≈ 0.00878 µM) | 0.00012 (≈ 0.000132 µM) | 1 (≈ 1.1 µM) | 2 (≈ 2.2 µM) | >8 |  |
| CO[C@H]1/C=C/O[C@@]2(C)Oc3c(C)c(O)c4c(=O)c(c5oc6cc(N7CCC(N8CCOCC8)CC7)cc(O)c6nc-5c4c3C2=O)NC(=O)/C(C)=C\C=C\[C@H](C)[C@H](O)[C@@H](C)[C@@H](O)[C@@H](C)[C@H](O)[C@@H]1C [Compound 11] | 0.004 (≈ 0.00431 µM) | 0.00012 (≈ 0.000129 µM) | 0.25 (≈ 0.27 µM) | 1 (≈ 1.08 µM) | 4 (≈ 4.31 µM) |  |
| COC1C=COC2(C)Oc3c(C)c(O)c4c(=O)c(c5oc6cc(N7CC8CCCNC8C7)cc(O)c6nc-5c4c3C2=O)NC(=O)C(C)=CC=CC(C)C(O)C(C)C(O)C(C)C(OC(C)=O)C1C (stereo not drawn) [Compound 12] | 0.004 (≈ 0.00432 µM) | 0.00025 (≈ 0.00027 µM) | 0.12 (≈ 0.13 µM) | 0.25 (≈ 0.27 µM) | 8 (≈ 8.65 µM) |  |
| CO[C@H]1/C=C/O[C@@]2(C)Oc3c(C)c(O)c4c(=O)c(c5oc6cc(N7CCC(NC(=O)OCC(C)C)CC7)cc(O)c6nc-5c4c3C2=O)NC(=O)/C(C)=C\C=C\[C@H](C)[C@H](O)[C@@H](C)[C@@H](O)[C@@H](C)[C@H](OC(C)=O)[C@@H]1C [Compound 13] | 0.008 (≈ 0.00801 µM) | 0.00012 (≈ 0.00012 µM) | 0.5 (≈ 0.5 µM) | 2 (≈ 2 µM) | 4 (≈ 4 µM) |  |
| COC1C=COC2(C)Oc3c(C)c(O)c4c(=O)c(c5oc6cc(N7CC8CCCNC8C7)cc(O)c6nc-5c4c3C2=O)NC(=O)C(C)=CC=CC(C)C(O)C(C)C(O)C(C)C(O)C1C (stereo not drawn) [Compound 15] | 0.03 (≈ 0.034 µM) | 0.002 (≈ 0.00226 µM) | 0.25 (≈ 0.283 µM) | 1 (≈ 1.13 µM) | >8 |  |
| CO[C@H]1/C=C/O[C@@]2(C)Oc3c(C)c(O)c4c(=O)c(c5oc6cc(N7CC8CCC(C7)N8)cc(O)c6nc-5c4c3C2=O)NC(=O)/C(C)=C\C=C\[C@H](C)[C@H](O)[C@@H](C)[C@@H](O)[C@@H](C)[C@H](O)[C@@H]1C [Compound 16] | 0.015 (≈ 0.0173 µM) | 0.001 (≈ 0.00115 µM) | 0.12 (≈ 0.138 µM) | 0.25 (≈ 0.288 µM) | 4 (≈ 4.6 µM) |  |
| CO[C@H]1/C=C/O[C@@]2(C)Oc3c(C)c(O)c4c(=O)c(c5oc6cc(N7CCC(N(C)C)CC7)cc(O)c6nc-5c4c3C2=O)NC(=O)/C(C)=C\C=C\[C@H](C)[C@H](O)[C@@H](C)[C@@H](O)[C@@H](C)[C@H](OC(C)=O)[C@@H]1C [Compound 17] | 0.008 (≈ 0.00863 µM) | 0.00012 (≈ 0.000129 µM) | 1 (≈ 1.08 µM) | 1 (≈ 1.08 µM) | 8 (≈ 8.63 µM) |  |
| CO[C@H]1/C=C/O[C@@]2(C)Oc3c(C)c(O)c4c(=O)c(c5oc6cc(N7CCC(N(C)C)CC7)cc(O)c6nc-5c4c3C2=O)NC(=O)/C(C)=C\C=C\[C@H](C)[C@H](O)[C@@H](C)[C@@H](O)[C@@H](C)[C@H](O)[C@@H]1C [Compound 18] | 0.004 (≈ 0.00452 µM) | 0.00012 (≈ 0.000136 µM) | 0.12 (≈ 0.136 µM) | 0.5 (≈ 0.565 µM) | 4 (≈ 4.52 µM) |  |
| CCOC(=O)NC1CCN(c2ccc3nc4c5c6c7c(C)c(O)c5c(=O)c(c-4n(C)c3c2)NC(=O)/C(C)=C\C=C\[C@H](C)[C@H](O)[C@@H](C)[C@@H](O)[C@@H](C)[C@H](OC(C)=O)[C@H](C)[C@@H](OC)/C=C/O[C@@](C)(O7)C6=O)CC1 [Compound 19] | 0.004 (≈ 0.00413 µM) | 0.001 (≈ 0.00103 µM) | 0.06 (≈ 0.062 µM) | 0.25 (≈ 0.258 µM) | 4 (≈ 4.13 µM) |  |
| CO[C@H]1/C=C/O[C@@]2(C)Oc3c(C)c(O)c4c(=O)c(c5oc6c7c(cc(O)c6nc-5c4c3C2=O)N(Cc2ccccc2)CCN7Cc2ccccc2)NC(=O)/C(C)=C\C=C\[C@H](C)[C@H](O)[C@@H](C)[C@@H](O)[C@@H](C)[C@H](OC(C)=O)[C@@H]1C [Compound 85] | 2 (≈ 1.93 µM) |  |  | >8 | >8 | 8 (≈ 7.71 µM) |
| CO[C@H]1/C=C/O[C@@]2(C)Oc3c(C)c(O)c4c(=O)c(c5oc6cc(N7CCN(c8ccccc8)CC7)cc(O)c6nc-5c4c3C2=O)NC(=O)/C(C)=C\C=C\[C@H](C)[C@H](O)[C@@H](C)[C@@H](O)[C@@H](C)[C@H](O)[C@@H]1C [Compound 102] | 0.004 (≈ 0.00435 µM) |  | 0.06 (≈ 0.0653 µM) | 0.25 (≈ 0.272 µM) | 4 (≈ 4.35 µM) |  |
| CO[C@H]1/C=C/O[C@@]2(C)Oc3c(C)c(O)c4c(=O)c(c5oc6c(F)cc(F)cc6nc-5c4c3C2=O)NC(=O)/C(C)=C\C=C\[C@H](C)[C@H](O)[C@@H](C)[C@@H](O)[C@@H](C)[C@H](O)[C@@H]1C [Compound 137] | 0.12 (≈ 0.154 µM) |  | 1 (≈ 1.28 µM) | 2 (≈ 2.57 µM) | >8 |  |
